Laboratory results: a melting point compilation (Tetko et al.; mined from patent text by program, amines drawn as free bases though some values may be those of a salt)

Compound	melting point [°C]
CCS(=O)(=O)Nc1ccc(CN(CC2(c3ccccn3)CCCCC2)C(=O)Nc2c(C(C)C)cccc2C(C)C)cc1	209
CN(C)/C=c1\c2ccccc2c2[nH]c(=O)c3nccn3c12	293
CCOC(=O)c1csc([N+](=O)[O-])c1Br	94 to 95
Cc1csc(N)c1S(=O)(=O)CC#N	88 to 90
CN1CCN(c2cccc3ccc(NC(=O)c4ccc(Cl)cc4)cc23)CC1	174 to 175
CCCc1c(C(=O)C(C)C)c2ccc(C(N)=O)cc2n1Cc1ccc(F)cc1Cl	192 to 193
CCCCCC(O)(CC#N)c1ccc(OC)cc1 (stereo unspecified)	45 to 47
CC(C)(C)c1ccc(C(=O)Nc2cn3cc(-c4ccccc4)ccc3n2)cc1	252 to 253
CC(=O)Nc1cc(C=CN(C)C)c([N+](=O)[O-])cn1	193 to 196
COc1cccc2c(O)c(C)c(C)nc12	> 290
CC(c1oc2ccccc2c(=O)c1-c1cccc(F)c1)n1nc(-c2ccc(Cl)s2)c2c(N)ncnc21 (stereo unspecified)	226 to 229
CC(=O)OC1CSC(Oc2cccc(-c3ccnc(F)c3)c2)C(OC(C)=O)C1OC(C)=O (stereo unspecified)	117
CCOC(=O)C1=C(C)NC(c2nccn2C)=NC1c1ccccc1Cl (stereo unspecified)	124 to 127
O=C1CC(NC(=O)c2c[nH]c3ccccc23)CCCN1 (stereo unspecified)	243 to 244
CCCCCC(=O)NCc1ccco1	54 to 55
COc1cc(C(=O)O)ccc1Cc1cn(C)c2ccc(CC(C)NC(=O)N(C)C)cc12 (stereo unspecified)	162 to 163
O=C(c1ccc(Cc2c(Cl)cc([N+](=O)[O-])cc2Cl)cc1)c1cnc(Cl)c(Cl)c1	129 to 131
COc1cccc(CCNCCc2c[nH]cn2)c1	98 to 100
CC1(C)Cc2nc(N3CCOc4ccc(Br)cc43)sc2C(=O)N1	155
Nc1c(Cl)cc(C(O)CNCCCCCCOCCCc2ccc(C(=O)O)cc2)cc1Cl (stereo unspecified)	190 to 191
CCOC(=O)c1cc(-n2c(=O)c3c(n(C)c2=O)CCCC3)ccc1Cl	108 to 112
CC(=O)Nc1ccc2c(c1)C(CN1CCC(c3ccc(F)cc3)CC1)CC2 (stereo unspecified)	145 to 146
CCCCCCCCCCCCCCCCCCC(CO)CO	88
CC(C)OC(=O)Cn1c(=O)n(C)c(=O)n(-c2cc(N=c3sc(=S)n4n3CCC=C4)c(F)cc2Cl)c1=O	105 to 113
Oc1ccc(N2CCN(Cc3nc4ccccc4[nH]3)CC2)cc1	206 to 209
CCCOc1cccc(CO)c1I	75 to 75.5

Compound	melting point [°C]
O=C(c1ccccc1)c1cnn2c(-c3cccc(N4CCCC4=O)c3)ccnc12	173 to 174
N=C(N)NCCCOc1ccc2c(c1)CC(CC(=O)O)C(=O)N2 (stereo unspecified)	178 to 179
CC(C)(O)Cn1c(CO)nc2c(N)nc3cc(-c4ccccc4)cnc3c21	244 to 245
CC(C)C(=O)NCCC1C=CC=CC1=O (stereo unspecified)	88 to 93
O=C(O)C1=Cc2cc(Cl)cc(I)c2OC1C(F)(F)F (stereo unspecified)	220 to 223
COc1ccc(-c2nnc(NC3CCN(Cc4ccc(C(=O)O)cc4)CC3)c3cc(OC)ccc23)cc1	295
CC(O)Cn1nc2c3c(cc(O)cc31)CCC2 (stereo unspecified)	153 to 155
O=C(/C=C/c1cccc(F)c1)N1CCN(C(=O)c2cc(C(F)(F)F)cc(C(F)(F)F)c2)[C@H](Cc2c[nH]c3ccccc23)C1	120 to 130
CN1Cc2ccccc2[C@H]2c3cccc4c3c(cn4C)C[C@@H]21 (relative stereo)	184 to 185
COc1cc(Nc2nccc(-c3ccc(N4CCCNCC4)nc3)n2)cc(OC)c1OC	144 to 145
COC(=O)C(C)N(C(=O)CCl)c1c(C)cccc1Cl (stereo unspecified)	75 to 78
O=[N+]([O-])c1cn2c(n1)OC[C@@H](OCc1ccc(Cl)nc1)C2	191 to 193
FC(F)(F)c1ccc2cc3[nH]c(=S)[nH]c3nc2c1	> 320
CCCc1c(OCCCC(=O)NCCCc2cccnc2)ccc(C(C)=O)c1O	97 to 98
COc1ccc(CC(=O)c2ccccc2)cc1	87 to 92
CNc1ccnc2c1c(=O)n(C)c(=O)n2C	179 to 180
O=C(c1ccccc1)c1c[nH]c2ncnc(Nc3cccc(CO)c3)c12	273 to 275
O=C1C2=NCCCN2c2ccc(F)cc21	150 to 152
COC(=O)NOCC(=O)OCOC(=O)Oc1c(Br)cc(C#N)cc1Br	110 to 111
Cc1ccc2nc(C)c(C3=NNC(=O)CO3)n2c1	313
N#Cc1ccc(-c2c[nH]nc2C(F)(F)F)cc1SCC(F)(F)F	65 to 67
CC1C[C@@H]2NC[C@@H](NC(=O)OC(C)(C)C)[C@@H]2O1 (relative stereo)	69 to 72
CCOC(=O)C1CCC2(C)C(=CC(O)C3C2CCC2(C)C(O)CCC32)C1 (stereo unspecified)	170 to 171
O=C(NC1CCOCC1)c1ccc(-c2cc(-c3c(-c4ccccn4)nc4ccccn34)ccn2)cc1	179
CCOCCN(C(=O)N(CCCl)N=O)C1(O)C(CO)OC(OC2CCCCC2)C1O (stereo unspecified)	62 to 64
CCc1c(-c2ccc(O)cc2)c2cc(COCCN(C)C)c3cccc1n32	141 to 143

Compound	melting point [°C]
N#CC(c1ccc(Cl)c(Cl)c1)c1c(Cl)cc([N+](=O)[O-])cc1Cl (stereo unspecified)	171 to 172
CNCC(O)c1cc(C(F)(F)F)nc2c(C(F)(F)F)cccc12 (stereo unspecified)	158
Cc1ccccc1NC(=O)Nc1ccc(CC(=O)NC(CC(C)C)C2=NOC(CCC(=O)O)(CCC(=O)O)C2)cc1 (stereo unspecified)	173 to 175
O=C(O)C[C@@H](Cc1ccccc1)C(=O)OCc1ccccc1	48 to 52
CCOC(=O)c1ccc(COCc2csc3nc(C(=O)NCc4cccc(N(C)C(=O)C(F)(F)F)c4)[nH]c(=O)c23)cc1	208 to 209
O=C(O)c1ccc(OC2=C3N=C4CCCCC4=C3C(Cc3ccc(Br)cc3)C=C2)o1 (stereo unspecified)	156 to 158
Clc1ccc(-c2c(-c3ccncc3)nc(-c3c(Cl)cccc3Cl)n2C2CC2)cc1	210 to 211
CC(=O)OCCCCCCOc1ccc([N+](=O)[O-])c(C=O)c1	42 to 43
CCCCOC(=O)c1ccc(N2CCN(CC=Cc3ccc(Cl)cc3)CC2)cc1	115 to 117
CCOC(=O)Nc1ccc2oc(-c3ccccc3)cc2c1	164
CC(=O)N[C@@H](C)COC1CCN(c2nc3ccc(OCC4CC4)cc3o2)CC1	120
CCOC(=S)C(CC(=O)c1ccc(Oc2ccccc2)cc1)C(=O)CC (stereo unspecified)	55 to 57
O=[N+]([O-])c1ccc(Oc2ccc(Cl)cc2Cl)cc1Oc1ccc(Cl)cc1Cl	91 to 93
CCc1nc(C)c(/C=C(\NC(=O)c2ccc(C(=O)NCc3cccc(O)c3)cc2Cl)C(=O)O)s1	> 200
CC(=O)Nc1nc(-c2ccccc2)c(-c2ccc(=O)n(C(C)C)n2)s1	202 to 204
COC(=O)c1ccc(NC=O)nc1	218 to 220
CC(C)=C1C(=O)N(c2cccc3c(N)cccc23)C(=O)/C1=C(\C)c1cc(-c2ccccc2)sc1C	155 to 158
CCn1c2ccccc2c2c3c(nc(C)c21)CC(C)(C)CC3=O	174 to 177
S=C=NCCC1CC(c2ccccc2)=NO1 (stereo unspecified)	54 to 56
O=C1c2cccc3c(F)ccc(c23)C(=O)N1O	257 to 261
N#Cc1c(Cl)ccc(F)c1Cl	69 to 71
CCOC(=O)c1c(N2CCN(C(=O)c3cccs3)CC2)c2sccc2n(CC(=O)c2ccccc2)c1=O	240
Cc1cc(Oc2ccc([N+](=O)[O-])c(N(C)C(=O)OC(C)(C)C)c2)cc(C)c1NC(=O)OC(C)(C)C	154 to 156
CN(C)S(=O)(=O)c1cccc(-c2ccnc(C(=O)N(O)Cc3ccccc3)c2)c1	110 to 115
O=c1c2ccccc2nc(-c2cc(-c3ccc(Cl)cc3)c(N3CCOCC3)s2)n1-c1ccccc1Cl	215 to 217
COc1ccc(-c2cncc(OC3SCC(OC(C)=O)C(OC(C)=O)C3OC(C)=O)c2)cn1 (stereo unspecified)	172

Compound	melting point [°C]
CCOC(=O)C(C(C)=O)=C(N)C(F)(F)F	63 to 65
CCOC(=O)c1c(-c2ccccc2Cl)c2cc(CC)sc2n(C)c1=O	105 to 106
COCCOC(=O)c1cncn1C1CCCc2ccccc21 (stereo unspecified)	66.8
Cc1ccc2c(c1)C1(COc3cc4c(cc31)OCO4)C(=O)N2Cc1ccc(C(F)(F)F)o1 (stereo unspecified)	96 to 98
NC(=O)C(N)c1ccc(Cl)cc1Cl (stereo unspecified)	114
c1cc2c(s1)CNCCS2	138 to 139
Cc1cc(C(C)(C)C)c(O)c([N+](=O)[O-])c1[N+](=O)[O-]	104 to 105
CCOP(=O)(CCCCCCCOc1nc(-c2ccccc2)c(-c2ccccc2)n1-c1ccccc1)OCC	76 to 77
O=c1ccn(-c2cccc(C(F)(F)F)c2)nc1-c1c[nH]nc1-c1ccccc1	206 to 208
BrCc1cccc(OCc2ccccc2)c1	38 to 40
CCCN(C)S(=O)(=O)c1nnc(NC(=O)N(C)C)s1	152 to 153
Cc1ccc(Oc2c(C)cc([N+](=O)[O-])c(C)c2Cl)c(C)c1	78 to 80
CCCCCCCNC(=O)Nc1ccccc1C(=O)Nc1c(C(C)C)cccc1C(C)C	123 to 125
Nc1nc(=O)n(C(=O)c2cc(F)cc(F)c2)cc1F	227 to 231
Clc1cccc(Cl)c1-c1nsnc1OCCBr	60 to 61
COc1cc2cc(OCCCN3CCCCC3)ccc2c2ccc(OCCCN3CCCCC3)cc12	118 to 120
O=C(O)CC1=C(c2ccccc2)c2ccccc2OC1	147 to 149
CN(C)CC(=O)Nc1cccc2c1C(=O)c1c-2n[nH]c1-c1ccc(N2CCNCC2)cc1	243
CSc1ncc(O)c(O)n1	213 to 215
CCOC(=O)CN1CCN(c2ccccc2[N+](=O)[O-])CC1	122
O=C1CNc2ncc(I)cc2N1Cc1c(Cl)cccc1Cl	> 200
S=C=Nc1ccc2oc(-c3sccc3CN3CCOCC3)nc2c1	117 to 118
N#CC(CC(=O)O)(c1ccc(F)cc1)c1ccc(F)cc1	165 to 166
